According to ChEMBL document CHEMBL1201862, “PubChem BioAssay data set” (2004):
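Method: 48-hour compound exposure of cells in 96-well plates, five concentrations, linear interpolation of endpoints. Here, GI50 denotes the concentration required for 50% inhibition of growth.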 Calls of active or inactive are those of the source. Rule as the data show it: active = GI50 up to about 1.1 µM and inactive = higher.

Experiments:
Test in all cases: growth of human tumour cells (NCI), 48 h
U-251 = tested on: U-251
LOX IMVI = tested on: LOX IMVI
HCC 2998 = tested on: HCC 2998
OVCAR-3 = tested on: OVCAR-3
MDA-MB-231 = tested on: MDA-MB-231
MCF7 = tested on: MCF7
NCI-H23 = tested on: NCI-H23
786-0 = tested on: 786-0
MDA-MB-435 = tested on: MDA-MB-435
K562 = tested on: K562
T47D = tested on: T47D
SK-MEL-2 = tested on: SK-MEL-2
COLO 205 = tested on: COLO 205
BT-549 = tested on: BT-549
SF-539 = tested on: SF-539
HL-60 = tested on: HL-60
HT-29 = tested on: HT-29
KM12 = tested on: KM12
SNB-19 = tested on: SNB-19
MOLT-4 = tested on: MOLT-4

Measured: GI50

COc1cc2oc(=O)ccc2cc1CC=C(C)C [SUBEROSIN]
inactive: U-251 43.3 µM | LOX IMVI 39.1 µM | HCC 2998 31 µM | OVCAR-3 59.7 µM | MDA-MB-231 50.2 µM | MCF7 32.4 µM | NCI-H23 52.4 µM | 786-0 > 10 µM | MDA-MB-435 43.3 µM | K562 51.4 µM | T47D 15.8 µM | SK-MEL-2 45.3 µM | COLO 205 43.4 µM | BT-549 24.4 µM | SF-539 37.7 µM | HL-60 14.7 µM | HT-29 22.6 µM | KM12 36.9 µM | SNB-19 50.6 µM | MOLT-4 28.8 µM

OC[C@H]1O[C@@H](n2cnc3c(S)ncnc32)[C@H](O)[C@@H]1O [THIOINOSINE]
inactive: U-251 > 2450 µM | LOX IMVI 1840 µM | HCC 2998 > 2500 µM | OVCAR-3 1160 µM | MDA-MB-231 > 2500 µM | MCF7 2290 µM | NCI-H23 > 2500 µM | 786-0 > 2500 µM | MDA-MB-435 2330 µM | K562 1290 µM | T47D 1830 µM | SK-MEL-2 1490 µM | COLO 205 > 2230 µM | BT-549 > 2500 µM | SF-539 > 2500 µM | HL-60 > 1760 µM | HT-29 2260 µM | KM12 > 2500 µM | SNB-19 > 1580 µM | MOLT-4 2300 µM
